Test results: US20250332173A1, “COMPOUNDS AND METHODS FOR MODULATING NUCLEIC ACID SPLICING” (REMIX THERAPEUTICS INC., priority 2021, published 2025)
Like-named read-outs stand apart in the source and are kept apart here.

Tests used:
HTT = experiment: HiBiT protein abundance assay, HTT HiBiT K562 cell line; type: cell-based, human; settings: HiBiT K562 cell line, 24 hours, top dose 10 μM; read-out: Effect on protein abundance, HTT (IC50 category)
Description: (§1) Compounds described herein were used to screen for effects on quantitative protein abundance using a HiBit assay system (Promega). Quantitative protein abundance was determined by measuring the protein levels of HiBit-tagged protein targets expressed in cell culture via luminescence using the Nano-Glo HiBiT Lytic Detection System, which uses a split complementation assay format to reconstitute NanoBiT enzyme to generate a luminescent signal. A protein abundance assay was developed such that endogenous protein targets could be modified with the HiBiT peptide tag and their abundance could be assessed after compound treatment. Briefly, K562 cell lines containing a HiBiT-modification were treated with various compounds described herein (e.g., compounds of Formulas (I), (II), (III), (IV), (V), (VI), (VII), (VIII), or (IX)). After treatment for 24 hours, the protein abundance of a specific target was determined by measuring luminescence.
(§2) • Promega Nano-Glo HiBiT Lytic Detection System (cat #N3030) • Corning 384-well TC-treated microplates (cat #3570) • Synthego Engineered Cells Knock-In Clones
(§3) Cells were maintained in IMDM with 10% FBS. Before the assay, cells were diluted with […] growth media (IMDM+[…] media) and were seeded in a 384-well plate at a density of 10,000 cells/well (for each cell line listed in Table 5). Each compound was prepared as a 10-point 3-fold serial dilution in DMSO with the top dose at a final concentration of 10 μM in the well. Unmodified K562 cells were added at the previously specified density with DMSO to serve as an assay baseline and positive control (PC) and DMSO only with the respective modified cell lines was added to the negative control (NC) columns. Final DMSO concentration was kept at or below 0.25%. Treated cell plates were placed in an incubator at 37° C. with […] for 24 hours. After 24 hours, 25 μL of Complete HiBit Lytic reagent was added to each well at room temperature (e.g. one plate requiring 10 mL Lytic Buffer, 100 μL LgBiT Protein, 200 μL Lytic Substrate), shaken for 5 minutes at 600 RPM, then left to sit for 10 minutes for signal to stabilize before reading on a Spark Cyto plate reader (Tecan) with a 500 ms measurement time.
(§4) To determine compound effects on protein abundance of each target in Table 5, the percent response for each respective cell line was calculated at each compound concentration as follows:
(§5) For the normalized response at each concentration, a four-parameter logistical regression was fit to the data and the response was interpolated at the […] to determine a concentration for protein abundance at […] the untreated control.

HTT mRNA = experiment: RT-qPCR splicing assay, HTT canonical junction (CJ) and alternative junction (AJ) mRNA; type: cell-based, human; settings: Homo sapiens; for AC50: increase in HTT alternative junction (AJ) mRNA, read-out: HTT AJ AC50
Procedure, shortened: (§6)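 Splicing switches were read by TaqMan RT-qPCR on lysates, quantifying exon-exon junctions of the canonical and alternative-exon isoforms. Lysates came from K562 (GAPDH/GUSB reference) or A673 (PPIA reference) cells exposed 24 h to compound in 11 threefold steps from 10 uM, with DMSO ≤0.25%.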

Target C [1] = experiment: HiBiT protein abundance assay, Target C (Promega Nano-Glo HiBiT Lytic Detection System, knock-in K562 cell line); type: cell-based, human; settings: Homo sapiens, K562, 24 h, HiBiT K562 cell line, 24 hours, top dose 10 μM; read-out: Effect on protein abundance, Target C (IC50 category)
Description: as §2, §3, §4, §5

Target C [2] = experiment: RT-qPCR splicing assay panel, Target C canonical junction (CJ) mRNA; type: cell-based, human; settings: Homo sapiens; Table 5 panel; canonical junction qPCR; compound concentration having 50% response in CJ decrease; read-out: Target C IC50 (decrease in CJ mRNA levels)
Procedure, shortened: (§7)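 Canonical exon-exon junction transcript levels measured by one-step RT-qPCR of cell lysates, normalized to a housekeeping gene (GAPDH, GUSB or PPIA). Cells used were A673 or K562, exposed for 24 h to compound in 11-point, 3-fold series from 10 uM, with final DMSO at or below 0.25%.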

[3] = system: K562 (human chronic myelogenous leukemia) cells; experiment: Cell Titer Glo 2.0 cell viability assay; type: cell-based; settings: Homo sapiens, K562, 72 h, K562 cells, 72 hours, Cell Titer Glo 2.0; read-out: K562 GI50
SMN2 mRNA = experiment: RT-qPCR splicing assay, SMN2 canonical junction (CJ) mRNA; type: cell-based, human; settings: Homo sapiens; Table 5 panel; canonical junction qPCR; compound concentration having 50% response in CJ decrease; read-out: SMN2 IC50 (decrease in CJ mRNA levels)
Procedure, shortened: as §7

MYB = experiment: HiBiT protein abundance assay, MYB HiBiT K562 cell line; type: cell-based, human; settings: HiBiT K562 cell line, 24 hours, top dose 10 μM; read-out: Effect on protein abundance, MYB (IC50 category)
Description: as §1, §2, §3, §4, §5

MYB mRNA = experiment: RT-qPCR splicing assay, MYB canonical junction (CJ) and alternative junction (AJ) mRNA; type: cell-based, human; settings: Homo sapiens
Procedure, shortened: as §6

[4] = decrease in HTT canonical junction (CJ) mRNA, RT-qPCR, read-out: HTT CJ IC50
[5] = Table 5 panel, canonical junction qPCR, compound concentration having 50% response in CJ decrease, read-out: HTT IC50 (decrease in CJ mRNA levels)

SMILES	IC50 (HTT) [nM]	IC50 (HTT mRNA; [4]) [nM]	IC50 (HTT mRNA; [5]) [nM]	IC50 (Target C [1]) [nM]	IC50 (Target C [2]) [nM]	GI50 [3] [nM]	IC50 (SMN2 mRNA) [nM]	IC50 (MYB) [nM]	IC50 (MYB mRNA; decrease in MYB canonical junction (CJ) mRNA, RT-qPCR, read-out: MYB CJ IC50) [nM]	IC50 (MYB mRNA; Table 5 panel, canonical junction qPCR, compound concentration having 50% response in CJ decrease, read-out: MYB IC50 (decrease in CJ mRNA levels)) [nM]	AC50 (HTT mRNA; RT-qPCR) [nM]	AC50 (MYB mRNA; increase in MYB alternative junction (AJ) mRNA, RT-qPCR, read-out: MYB AJ AC50) [nM]
Cc1cc(-c2ccc3c(=O)n(C4CCNCC4)c(C)nc3c2)cc2cn(C)nc12 [Compound 313]	> 10000	> 10000	> 10000	> 10000	> 10000	1000 to 10000	100 to 1000	1000 to 10000			> 10000	
O=c1c2c(F)cc(-c3cn[nH]c3)cc2ncn1C1CCNCC1 [Compound 321]	> 10000	> 10000		> 10000		> 10000		> 10000	1000 to 10000		> 10000	1000 to 10000
Cc1cn2cc(-c3ccc4c(=O)n([C@H]5CCNC5)cc(C)c4c3)cc(F)c2n1 [Compound 451, (S)-6-(8-fluoro-2-methylimidazo[1,2-a]pyridin-6-yl)-4-methyl-2-(pyrrolidin-3-yl)isoquinolin-1(2H)-one]	1000 to 10000		> 10000	> 10000	> 10000	1000 to 10000	100 to 1000	1000 to 10000		1000 to 10000		
Cc1cn2cc(-c3ccc4c(=O)n(C5CCNCC5)ccc4n3)cc(F)c2n1 [Compound 1230, 2-(8-fluoro-2-methylimidazo[1,2-a]pyridin-6-yl)-6-(piperidin-4-yl)-1,6-naphthyridin-5(6H)-one]	< 100			100 to 1000		< 100		< 100				
Cc1c(O)c(-c2ccc3c(=O)n(C4CCNCC4)ccc3n2)cc2cn(C)nc12 [Compound 1234]	< 100			< 100		< 100		< 100				
Cc1nc2cc(O)c(-c3ccc4c(=O)n(C5CCNCC5)ccc4n3)cc2o1 [Compound 1237]	< 100			< 100		< 100		< 100				
Cn1cc2cc(-c3ccc4c(=O)n(C5CCNCC5)ccc4n3)c(O)cc2n1 [Compound 1239, 2-(6-hydroxy-2-methyl-2H-indazol-5-yl)-6-(piperidin-4-yl)-1,6-naphthyridin-5(6H)-one]	< 100			< 100		< 100		< 100				
Cn1cc2cc(-c3ccc4c(=O)n([C@H]5CCNC6(CC6)C5)ccc4n3)c(O)cc2n1 [Compound 1245]	< 100			< 100		100 to 1000		< 100				
Cc1c(O)c(-c2ncc3c(=O)n(C45CCC(N)(CC4)CC5)ccc3n2)cc2cn(C)nc12 [Compound 1323]	1000 to 10000			> 10000		< 100		< 100				
Cc1c(O)c(-c2ncc3c(=O)n(C45CCC(N)(C4)C5)ccc3n2)cc2cn(C)nc12 [Compound 1324]	1000 to 10000			1000 to 10000		100 to 1000		100 to 1000				
Cc1cn2cc(-c3ncc4c(=O)n(C5CCNCC5)c(C)cc4n3)cc(F)c2n1 [Compound 1327]	> 10000			> 10000		100 to 1000		100 to 1000				
Cc1c(O)c(-c2ncc3c(=O)n([C@H]4C[C@H]5CC[C@@H](C4)N5)ccc3n2)cc2cn(C)nc12 [Compound 1329]	100 to 1000			100 to 1000		100 to 1000		< 100				

Second part, led by results:

IC50 (HTT) [nM]	IC50 (HTT mRNA; [4]) [nM]	IC50 (HTT mRNA; [5]) [nM]	IC50 (Target C [1]) [nM]	IC50 (Target C [2]) [nM]	GI50 [3] [nM]	IC50 (SMN2 mRNA) [nM]	IC50 (MYB) [nM]	IC50 (MYB mRNA; decrease in MYB canonical junction (CJ) mRNA, RT-qPCR, read-out: MYB CJ IC50) [nM]	IC50 (MYB mRNA; Table 5 panel, canonical junction qPCR, compound concentration having 50% response in CJ decrease, read-out: MYB IC50 (decrease in CJ mRNA levels)) [nM]	SMILES	AC50 (HTT mRNA; RT-qPCR) [nM]	AC50 (MYB mRNA; increase in MYB alternative junction (AJ) mRNA, RT-qPCR, read-out: MYB AJ AC50) [nM]
100 to 1000			100 to 1000		< 100		< 100			Cc1c(O)c(-c2ncc3c(=O)n(C4CCNC(C)C4)ccc3n2)cc2cn(C)nc12 (centres unmarked) [Compound 1320]		
100 to 1000			1000 to 10000		100 to 1000		100 to 1000			Cc1c(O)c(-c2ncc3c(=O)n(C4CCC(N)C4)ccc3n2)cc2cn(C)nc12 (centres unmarked) [Compound 1321]		
> 10000			1000 to 10000		1000 to 10000		1000 to 10000			Cc1c(O)c(-c2ncc3c(=O)n(C45CC(N)(C4)C5)ccc3n2)cc2cn(C)nc12 [Compound 1322]		
100 to 1000			1000 to 10000		100 to 1000		100 to 1000			Cc1c(O)c(-c2ncc3c(=O)n(C4CC5CC4CN5)ccc3n2)cc2cn(C)nc12 (centres unmarked) [Compound 1325]		
100 to 1000			100 to 1000		100 to 1000		< 100			Cc1c(O)c(-c2ncc3c(=O)n([C@H]4[C@@H]5CNC[C@@H]54)ccc3n2)cc2cn(C)nc12 [Compound 1326]		
100 to 1000			1000 to 10000		100 to 1000		100 to 1000			Cc1c(O)c(-c2ncc3c(=O)n([C@@H]4CC[C@H](N)C4)ccc3n2)cc2cn(C)nc12 [Compound 1333]		
100 to 1000			1000 to 10000		100 to 1000		100 to 1000			Cc1c(O)c(-c2ncc3c(=O)n([C@H]4CC[C@H](N)C4)ccc3n2)cc2cn(C)nc12 [Compound 1334]		
